Results reported in article PMC6986443, “T‐495, a novel low cooperative M1 receptor positive allosteric modulator, improves memory deficits associated with cholinergic dysfunction and is characterized by low gastrointestinal side effect risk” (Pharmacology Research & Perspectives, 2020).
Like-named read-outs stand apart in the source and are kept apart here.

Columns and labels:
[1] = test system: human M2R–M5R; assay: Ca2+ mobilization assay, PAM activity (with EC20 ACh), CHO‐K1 cells; assay type: cell-based; conditions: inflection point, EC20 concentration of ACh, read-out: PAM activity IP
Method: (§1) Chinese hamster ovary (CHO)‐K1 cells expressing M1R–M5R were plated on a 96‐well black, clear bottom plate at 30 000 cells/well and incubated at 37°C in an atmosphere of 5% CO2 for 1 day. On the day of the assay, cells were incubated with calcium dye buffer (Hanks’ Balanced Salt Solution (HBSS) containing 20 mmol/L HEPES, 0.1% fatty acid‐free bovine serum albumin (BSA), 0.08% pluronic F127 (Dojindo Laboratories), 2.5 μg/mL Fluo‐4 (Dojindo Laboratories), and 1.25 mmol/L probenecid (Dojindo Laboratories)) for 30 minutes at 37°C in an atmosphere of 5% CO2 and then incubated for 30 minutes at room temperature. To measure Ca^2+ mobilization using CellLux (PerkinElmer), cells were stimulated with T‐495 or MK‐7622 (0.01‐1000 nmol/L for PAM activity; 0.3‐10 000 nmol/L for agonist activity) in assay buffer (HBSS containing 20 mmol/L HEPES and 0.1% fatty acid‐free BSA) with or without an EC20 concentration of ACh. The inflection point (IP) and EC50 values were calculated using the following equation by GraphPad Prism 5 software (GraphPad Software Inc): Y=Bottom+(Top-Bottom)/1+10^(Log IPorEC50-X×HillSlope))
(§2) where X and Y are the log concentration of a compound and the percentage of Ca^2+ response, respectively, and Top and Bottom are the upper and lower plateaus, respectively.

[2] = test system: IP1 production in the rat hippocampus; assay: In vivo IP1 assay, rat hippocampus; conditions: LiCl 10 mmol/kg s.c., vs vehicle
Method: (§3) Eight‐week‐old Long‐Evans rats, 8‐ to 9‐week‐old C57BL/6J mice, and 22‐ or 29‐week‐old M1R KO mice and their WT littermates were used in this study. On the day of the experiment, animals were placed in individual cages and acclimated for more than 1 hour. A test compound or vehicle was administered 2 hours before the animals were sacrificed. […] LiCl (10 mmol/kg, s.c.) was injected 1 hour before sacrifice. In the repeated administration study, a test compound was administered to mice once daily for 13 days; on day 14, animals were treated with a test compound and LiCl (10 mmol/kg, s.c.) and then sacrificed. Animals were killed by decapitation, and blood was collected into tubes containing ethylenediaminetetraacetic acid for pharmacokinetic analysis; brains were quickly dissected, frozen on dry ice, and stored at −80°C until analysis. Brain tissues were homogenized in 19 (for rat tissues) or 39 (for mouse tissue) volumes of homogenization buffer (10 mmol/L HEPES pH 7.4, 50 mmol/L LiCl, 150 mmol/L NaCl, and 1% Triton X‐100), and the homogenate was incubated on a rotator for 1 hour, followed by centrifugation. The supernatant was diluted with 39 (for rat tissues) or 19 (for mouse tissues) volumes of dilution buffer (10 mmol/L HEPES pH 7.4, 50 mmol/L LiCl, and 150 mmol/L NaCl). IP1 and protein concentrations in the diluted supernatant were measured using IP‐One HTRF assay kit (Cisbio Bioassays) and BCA Protein Assay Kit (Thermo Fisher Scientific Inc), respectively, according to the manufacturers’ instructions. IP1 production was expressed as the ratio of IP1 to protein concentrations.

[3] = Concentrations in rat plasma and brain (IP1 study); assay type: in vivo; conditions: Long-Evans, po, mean ± SD; for Kp at 2 h: brain/plasma, read-out: Kp (brain‐to‐plasma concentration ratio)
Method: as §3

[4] = test system: rats pretreated with scopolamine; assay: Novel object recognition (NOR) test, scopolamine‐induced memory impairment; assay type: in vivo, rat; conditions: for scopolamine‐induced NDI reduction, retention trial: scopolamine 0.1 mg/kg s.c.
Method: On Day 1, 7‐week‐old Long‐Evans rats were individually placed into the test box fabricated from polyvinyl chloride (40‐cm square with 50‐cm high walls) without any objects for 10 minutes. […] In the acquisition trial, each rat was placed in the test box containing two identical objects and allowed to explore them for 3 minutes. After an intertrial interval of 4 hours, each rat was again placed in the same test box containing one familiar and one novel objects and allowed to explore both for 3 minutes (retention trial). The behavior of each animal during the acquisition and retention trials was recorded on video, and the time spent exploring each object (licking, sniffing, or touching the object with the forepaws) was scored manually. Results were presented as novelty discrimination index (NDI) calculated as follows: the exploration time for the novel object/the exploration time for both objects × 100.

[5] = target: T1, human M1R (Homo sapiens, UniProt P11229); assay: Ca2+ mobilization assay, PAM activity (with EC20 ACh), CHO‐K1 cells; assay type: cell-based; design: expressed in transfected cells; host or cells: CHO-K1
T1 sequence (P11229 1-460): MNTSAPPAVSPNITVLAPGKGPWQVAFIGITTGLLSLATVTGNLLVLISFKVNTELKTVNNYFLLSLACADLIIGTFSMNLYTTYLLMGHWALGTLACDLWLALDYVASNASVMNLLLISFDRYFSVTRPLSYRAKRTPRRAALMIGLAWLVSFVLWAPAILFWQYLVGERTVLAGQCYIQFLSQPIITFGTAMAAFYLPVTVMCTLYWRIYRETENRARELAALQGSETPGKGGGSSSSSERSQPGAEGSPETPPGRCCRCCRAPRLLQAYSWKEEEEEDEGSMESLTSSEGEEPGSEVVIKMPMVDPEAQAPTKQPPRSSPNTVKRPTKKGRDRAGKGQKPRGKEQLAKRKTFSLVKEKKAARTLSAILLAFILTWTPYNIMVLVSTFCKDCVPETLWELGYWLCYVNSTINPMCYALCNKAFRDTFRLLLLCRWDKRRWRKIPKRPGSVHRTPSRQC
Method: as §1, §2

[6] = target: T1, human M1R; assay: Ca2+ mobilization assay, agonist activity (absence of ACh), CHO‐K1 cells; assay type: cell-based; design: expressed in transfected cells; host or cells: CHO-K1; conditions: for margin between PAM and agonist activities: CHO‐K1 cells expressing human M1R
Method: as §1, §2

[7] = brain (hippocampus), rat hippocampus, 3 mg/kg p.o., read-out: Brain concentration
[8] = brain (hippocampus), rat hippocampus, 10 mg/kg p.o., read-out: Brain concentration
[9] = plasma, rat, 3 mg/kg p.o., n = 6, read-out: Plasma concentration
[10] = plasma, rat, 10 mg/kg p.o., n = 6, read-out: Plasma concentration

| Compound | EC50 [1] | IP1 production in the rat hippocampus ([2]; 10 mg/kg p.o.) | concentration at 2 h [3, 7] | concentration at 2 h [3, 8] | Kp at 2 h ([3]; rat, 3 mg/kg p.o.) | Kp at 2 h ([3]; rat, 10 mg/kg p.o.) | concentration at 2 h [3, 9] | concentration at 2 h [3, 10] | scopolamine‐induced NDI reduction, retention trial ([4]; 1 mg/kg p.o.) | scopolamine‐induced NDI reduction, retention trial ([4]; 3 mg/kg p.o.) | EC50 [5] | EC50 [6] | margin between PAM and agonist activities [6] | also measured |
| --- | --- | --- | --- | --- | --- | --- | --- | --- | --- | --- | --- | --- | --- | --- |
| Cc1ccc(Cc2cc3c(=O)n([C@H]4CCCC[C@@H]4O)cnc3c3ccccc23)cn1 [MK‐7622, 3‐((1S,2S)‐2‐hydroxycyclohexyl)‐6‐((6‐methylpyridin‐3‐yl)methyl)benzo[h]quinazolin‐4(3H)‐one, reference compound] | > 1000 nM | significantly increased | 39.3 ± 5.6 ng/g | 220 ± 72.2 ng/g | 0.19 ± 0.04 | 0.23 ± 0.02 | 218 ± 42.9 ng/mL | 944 ± 246 ng/mL | subeffective | significantly reversed | 1.32 nM | 407 nM | 313 fold | concentration at 2 h ([3]; brain (hippocampus), rat hippocampus, 1 mg/kg p.o., read-out: Brain concentration): 14.5 ± 6.3 ng/g; Kp at 2 h ([3]; rat, 1 mg/kg p.o.): 0.14 ± 0.04; concentration at 2 h ([3]; plasma, rat, 1 mg/kg p.o., n = 6, read-out: Plasma concentration): 99.2 ng/mL; scopolamine‐induced NDI reduction, retention trial ([4]; 10 mg/kg p.o.): significantly reversed; scopolamine‐induced NDI reduction, combination with donepezil ([4]; MK‐7622 1 mg/kg + donepezil 0.1 mg/kg p.o.): could not reverse |
| Cc1c(Cc2ccc(Cl)nc2)cc2c(c1Cl)OCN([C@H]1CCC[C@@H]1O)C2=O [T‐495, 8‐chloro‐6‐((6‐chloropyridin‐3‐yl)methyl)‐3‐((1S,2S)‐2‐hydroxycyclopentyl)‐7‐methyl‐2,3‐dihydro‐4H‐1,3‐benzoxazin‐4‐one] | > 1000 nM | significantly increased | 66.2 ± 18.5 ng/g | 304 ± 82.8 ng/g | 1.4 ± 0.1 | 1 ± 0.1 | 49.6 ± 14.5 ng/mL | 298 ± 75.2 ng/mL | significantly reversed | significantly reversed | 2.29 nM | 649 nM | 282 fold | IP1 production in the rat hippocampus ([2]; 30 mg/kg p.o.): significantly increased; concentration at 2 h ([3]; brain (hippocampus), rat hippocampus, 30 mg/kg p.o., read-out: Brain concentration): 1000 ± 330 ng/g; Kp at 2 h ([3]; rat, 30 mg/kg p.o.): 1 ± 0.1; concentration at 2 h ([3]; plasma, rat, 30 mg/kg p.o., n = 6, read-out: Plasma concentration): 1050 ± 358 ng/mL; scopolamine‐induced NDI reduction, retention trial ([4]; 0.3 mg/kg p.o.): subeffective; scopolamine‐induced NDI reduction, combination with donepezil ([4]; T‐495 0.3 mg/kg + donepezil 0.1 mg/kg p.o.): significantly improved |
